Data: PubChem BioAssay AID1259407 (Chemical Carcinogenesis Research Information System (CCRIS), 2018)
The source made the active and inactive calls. No rule for the calls is given here.

Tested on: CCRIS mutagenicity, Ames/micronucleus/aberration tests
Assay: CCRIS mutagenicity studies
Conditions: Test System: AMES SALMONELLA TYPHIMURIUM
[1] = Strain/Indicator: TA98, Metabolic Activation: NONE, Method: STANDARD PLATE
[2] = Strain/Indicator: TA100, Metabolic Activation: NONE, Method: STANDARD PLATE
[3] = Strain/Indicator: TA1535, Metabolic Activation: NONE, Method: STANDARD PLATE
[4] = Strain/Indicator: TA1537, Metabolic Activation: NONE, Method: STANDARD PLATE

Measured: mutagenic call

C=CC(=O)OCCCCCCOC(=O)C=C
inactive: Strain/Indicator: TA97, Metabolic Activation: HAMSTER, LIVER, S-9, AROCLOR 1254 (10%), Method: PREINCUBATION inactive; negative | Strain/Indicator: TA97, Metabolic Activation: HAMSTER, LIVER, S-9, AROCLOR 1254 (30%), Method: PREINCUBATION inactive; negative | Strain/Indicator: TA97, Metabolic Activation: NONE, Method: PREINCUBATION inactive; negative | Strain/Indicator: TA97, Metabolic Activation: RAT, LIVER, S-9, AROCLOR 1254 (10%), Method: PREINCUBATION inactive; negative | Strain/Indicator: TA97, Metabolic Activation: RAT, LIVER, S-9, AROCLOR 1254 (30%), Method: PREINCUBATION inactive; negative | Strain/Indicator: TA98, Metabolic Activation: HAMSTER, LIVER, S-9, AROCLOR 1254 (10%), Method: PREINCUBATION inactive; negative | Strain/Indicator: TA98, Metabolic Activation: HAMSTER, LIVER, S-9, AROCLOR 1254 (30%), Method: PREINCUBATION inactive; negative | Strain/Indicator: TA98, Metabolic Activation: NONE, Method: PREINCUBATION inactive; negative | [1] inactive; negative | Strain/Indicator: TA98, Metabolic Activation: RAT, LIVER, S-9, AROCLOR 1254 (10%), Method: PREINCUBATION inactive; negative | Strain/Indicator: TA98, Metabolic Activation: RAT, LIVER, S-9, AROCLOR 1254 (30%), Method: PREINCUBATION inactive; negative | Strain/Indicator: TA98, Metabolic Activation: RAT, LIVER, S-9, AROCLOR 1254, Method: STANDARD PLATE inactive; negative | Strain/Indicator: TA98, Metabolic Activation: RAT, LIVER, S-9, SODIUM PHENOBARBITAL, Method: STANDARD PLATE inactive; negative | Strain/Indicator: TA100, Metabolic Activation: HAMSTER, LIVER, S-9, AROCLOR 1254 (10%), Method: PREINCUBATION inactive; negative | Strain/Indicator: TA100, Metabolic Activation: HAMSTER, LIVER, S-9, AROCLOR 1254 (30%), Method: PREINCUBATION inactive; negative | Strain/Indicator: TA100, Metabolic Activation: NONE, Method: PREINCUBATION inactive; negative | [2] inactive; negative | Strain/Indicator: TA100, Metabolic Activation: RAT, LIVER, S-9, AROCLOR 1254 (10%), Method: PREINCUBATION inactive; negative | Strain/Indicator: TA100, Metabolic Activation: RAT, LIVER, S-9, AROCLOR 1254 (30%), Method: PREINCUBATION inactive; negative | Strain/Indicator: TA100, Metabolic Activation: RAT, LIVER, S-9, AROCLOR 1254, Method: STANDARD PLATE inactive; negative | Strain/Indicator: TA100, Metabolic Activation: RAT, LIVER, S-9, SODIUM PHENOBARBITAL, Method: STANDARD PLATE inactive; negative | Strain/Indicator: TA1535, Metabolic Activation: HAMSTER, LIVER, S-9, AROCLOR 1254 (10%), Method: PREINCUBATION inactive; negative | Strain/Indicator: TA1535, Metabolic Activation: HAMSTER, LIVER, S-9, AROCLOR 1254 (30%), Method: PREINCUBATION inactive; negative | Strain/Indicator: TA1535, Metabolic Activation: NONE, Method: PREINCUBATION inactive; negative | [3] inactive; negative | Strain/Indicator: TA1535, Metabolic Activation: RAT, LIVER, S-9, AROCLOR 1254 (10%), Method: PREINCUBATION inactive; negative | Strain/Indicator: TA1535, Metabolic Activation: RAT, LIVER, S-9, AROCLOR 1254 (30%), Method: PREINCUBATION inactive; negative | Strain/Indicator: TA1535, Metabolic Activation: RAT, LIVER, S-9, AROCLOR 1254, Method: STANDARD PLATE inactive; negative | Strain/Indicator: TA1535, Metabolic Activation: RAT, LIVER, S-9, SODIUM PHENOBARBITAL, Method: STANDARD PLATE inactive; negative | Strain/Indicator: TA1537, Metabolic Activation: HAMSTER, LIVER, S-9, AROCLOR 1254 (10%), Method: PREINCUBATION inactive; negative | Strain/Indicator: TA1537, Metabolic Activation: NONE, Method: PREINCUBATION inactive; negative | [4] inactive; negative | Strain/Indicator: TA1537, Metabolic Activation: RAT, LIVER, S-9, AROCLOR 1254 (10%), Method: PREINCUBATION inactive; negative | Strain/Indicator: TA1537, Metabolic Activation: RAT, LIVER, S-9, AROCLOR 1254, Method: STANDARD PLATE inactive; negative | Strain/Indicator: TA1537, Metabolic Activation: RAT, LIVER, S-9, SODIUM PHENOBARBITAL, Method: STANDARD PLATE inactive; negative | Strain/Indicator: TA1538, Metabolic Activation: NONE, Method: STANDARD PLATE inactive; negative | Strain/Indicator: TA1538, Metabolic Activation: RAT, LIVER, S-9, AROCLOR 1254, Method: STANDARD PLATE inactive; negative | Strain/Indicator: TA1538, Metabolic Activation: RAT, LIVER, S-9, SODIUM PHENOBARBITAL, Method: STANDARD PLATE inactive; negative

CCCCNc1snc2ccccc12
inactive: [1] inactive; negative | Strain/Indicator: TA98, Metabolic Activation: S-9, Method: STANDARD PLATE inactive; negative | [2] inactive; negative | Strain/Indicator: TA100, Metabolic Activation: S-9, Method: STANDARD PLATE inactive; negative | [3] inactive; negative | Strain/Indicator: TA1535, Metabolic Activation: S-9, Method: STANDARD PLATE inactive; negative | [4] inactive; negative | Strain/Indicator: TA1537, Metabolic Activation: S-9, Method: STANDARD PLATE inactive; negative
